Data taken from patent US9624491B2, “Methods and compositions for the detection and treatment of cancer involving miRNAs and miRNA inhibitors and targets” (Memorial Sloan Kettering Cancer Center, priority 2010, dated 2017).

Key:
[1] = system: PPP2R5E, PRKAA1, BIM, PTEN, Bnip3, phosphorylated S6; assay: Immunoblot on lysates of transduced FL5-12 cells; format: cell-based, murine
Description: Immunoblots were performed from whole cell lysates as described (Wendel, et al., 2004). Briefly, 50 μg of protein/sample were resolved on SDS-PAGE gels and transferred to Immobilon-P-membranes (Millipore). Antibodies were against Prkaa1 (2532, 1:1000, Cell Signaling), Bim/Bcl2L11 (AAP-330, 1:1000, Assay Designs), FoxO1 (94545, 1:1000, Cell Signaling), FoxO3a (9467, 1:1000, Cell Signaling) Phospho-FoxO3a (94665, 1:1000, Cell Signaling), Ppp2r5e (NB 100-845, NOVUS), Pten (9559, 1:1000, Cell Signaling), tubulin (1:5000; Sigma, B-5-1-2), actin (1:5000; Sigma, AC-15), Bnip3 (3769, 1:1000, Cell Signaling), phosphorylated S6 (2215, 1:1000, Cell Signaling), phosphorylated Akt (4058, 1:1000, Cell Signaling) and Dock5 [a generous gift from Alan Hall (MSKCC)]. Enhanced chemiluminescence was used for detection (ECL, Amersham).

FL5-12 lymphocytes = assay: IL3 depletion competition assay for cytokine-independent survival of FL5-12 lymphocytes; format: cell-based, murine
Description: An established in vitro assay of hematopoietic transformation (Plas, Talapatra, Edinger, Rathmell, & Thompson, 2001) was used to identify the key oncogenic activities within the 17˜92 cluster and its paralogues. All miRNAs representing families of unique seed sequences, specifically miR-17, miR-18a, miR-19b-1 (miR-19), miR-20a, miR-106a, miR-106b and miR-25 were tested (FIG. 1a). The assay is based on the IL3 dependence of FL5-12 lymphocytes, which undergo apoptosis when removed from IL3. In competition experiments, FL5-12 cells were partially transduced with GFP plus individual miRNAs or empty vector and these mixed populations were monitored by fluorescence-activated cell sorting (FACS) for changes in their relative proportions (FIG. 1b).
FL5-12 murine lymphocytes, IL3 depletion studies and viral transductions were as described (Mavrakis, et al., 2008) (Plas, Talapatra, Edinger, Rathmell, & Thompson, 2001). Cell cycle and cell death assays based on uptake of DNA staining dye (LDS751) using Cell cycle and Viacount assays from Guava Technologies were performed as reported (Mavrakis, et al., 2008). The retroviral vectors are based on murine stem cell virus (MSCV) and include the miRNA expression vectors encoding miRs 17, 18a, 19b-1 (miR-19), 106a, 106b, 25 (He, et al., 2005), the vectors encoding Notch-ICN (a gift from W. Pear) (Pear, et al., 1996) and Bcl2 (Wendel, et al., 2004), the individual shRNA vectors (FIG. 17) and the library vector (MRP) (FIGS. 18a and b). miRNA inhibitor oligonucleotides (antagomirs) MZIP19a-PA-1, MZIP19b-PA-1, and scrambled control (MZIP000-PA-1) were from System Biosciences.
The primary screen is based on c-MYC-induced apoptosis in MEFs (Evan, et al., 1992). MEFs were transduced with c-MYC and the miRNA library and cultured in puromycin to select for homogeneous c-MYC expression; apoptosis was triggered by diluting serum from 10% to 0.1%. Surviving cells remained adherent and were collected for DNA isolation, PCR amplification of the integrated miRNA library constructs, sub-cloning into pGEM-T vector, bacterial transformation, and sequence identification of ˜100 colonies. A secondary library was constructed by sub-cloning all miRNAs from the primary screen into an MSCV construct. The secondary screen is based on the IL-3 dependence of FL5-12 lymphocytes in vitro (Mavrakis, et al., 2010), (Plas, Talapatra, Edinger, Rathmell, & Thompson, 2001). FL5-12 cells were partially transduced with the pooled, GFP-tagged library and selected by IL-3 depletion. miRNAs were identified as above. Individual miRNAs were subsequently validated in the same FL5-12 assay and in vivo.

FL5-12/Bcl2 cells = assay: Complementation studies in FL5-12 cells stably expressing Bcl2; format: cell-based, murine; conditions: shifted from complete to IL3 deficient media
Description: The relative contribution of the novel miR-19 targets was assessed. The pro-apoptotic BIM protein opposes BCL2 and is an important regulator of lymphocyte survival (Bouillet, et al., 1999). To assess whether miR-19 has Bim-independent effects, complementation studies were conducted with FL5-12 cells engineered to stably express Bcl2 (FL5-12/Bcl2 cells). […] Similarly, expression of miR-19 was associated with continued proliferation in the presence of metformin-activated AMP kinase or expression of Pten or Pp2r5e (FIG. 16).

[2] = system: 3′UTR of Pten, Ppp2r5e, Prkaa1 and Bim; assay: Reporter assay for 3′UTR repression by miR-19; format: cell-based; conditions: wild type vs mutated miR-19 binding sites
Description: FIG. 14. Reporter assay for 3′ untranslated region (3′UTR) repression by miR-19. The 3′UTR of the indicated genes was subcloned into a dual luciferase reporter construct (pSiCheck2) and inhibition of the 3′UTR by miR-19 is indicated as mean±SD ratio of Renila to Firefly luciferase activity (RLuc/Luc). WT indicates the wild type 3′UTR. M indicates the 3′UTR where the miR-19 binding site has been mutated. In the case of Pten, one site (M1) or both sites (M1+M2) were mutated [* indicates significant (p<0.05) changes; ** indicates non-significant (p>0.05) changes.]
The Dock5, Ppp2r5e, Prkaa1, and Bim 3′-UTR fragments were generated by PCR and cloned into the psi-CHECK-2 vector (Promega). The assays were performed as described (Xiao, et al., 2008). Binding site mutants were generated by site-directed mutagenesis.

[3] = system: Pten, Ppp2r5e, Prkaa1 and Bim mRNA; assay: qRT-PCR of miR-19 target genes in FL5-12 cells; format: cell-based; conditions: FL5-12 cells and murine T-ALL samples
Description: Total RNA and miRNA-enriched RNA were extracted from cells and tumor samples using Allprep DNA/RNA/Protein Kits (Qiagen) and miRNeasy Mini Kits (Qiagen), respectively. Pathological diagnosis was by expert hematopathologists at Weill Cornell Medical College. cDNA synthesis and qRT-PCR and analysis by the ΔΔ Ct method were as described (Mavrakis, et al., 2008). TaqMan Gene Expression Assays were used for Bcl2L11 (Mm00437796_m1), Dock5 (Mm00555757_m1), FoxO1 (Mm00490672_m1), FoxO3 (Mm01185722_m1), Ppp2r5e (Mm00803759_m1), Prkaa1 (Mm01296695_m1) and Pten (Mm01212532_m1). Mouse GAPD (GAPDH) (4352932) and miR-19b (000396) were from Applied Biosystems. Expression was normalized to RNU6B (001093, Applied Biosystems).

For “miR-19: miRNA of the 17˜92 cluster, UGUGCAAAUCCAUGCAAAACUGA (SEQ ID NO: 2); seed family in Table 3 (expressed or natural sequence; listed as Homo sapiens)”, the Bnip3 protein ([1]; FL5-12 cells) was “neither miR-19 nor the antagomir had an effect on Bnip3”, the PTEN protein ([1]; FL5-12 cells) was “no detectable effect on PTEN protein” and the “miR-19 target protein levels” value ([1]; FL5-12 cells) was “clear reduction in PPP2R5E, PRKAA1, and BIM”. For the same substance, the “ribosomal S6 phosphorylation” value ([1]; FL5-12 cells withdrawn from IL3 for 12 hours) was “directly activated ribosomal S6 phosphorylation”, the “enrichment of miRNA/GFP-expressing FL5-12 cells over parental cells upon IL3 depletion” value (FL5-12 lymphocytes; competition experiment, FACS) was “rapidly enriched over parental cells upon IL3 depletion” and the “IL-3 independence of FL5-12 cells” value (FL5-12 lymphocytes; retest of individual miRNAs from secondary library screen) was “confer IL-3 independence on FL5-12 cells”. For the same substance, the “enrichment of GFP-expressing FL5-12/Bcl2 cells” value (FL5-12/Bcl2 cells) was “continued enrichment in the presence of Bcl2”, the “3′UTR inhibition (RLuc/Luc)” value [2] was “direct 3′ untranslated region (UTR) inhibition via the miR-19 binding sites” and the “reductions in the mRNA levels of Pten, Ppp2r5r, Prkaa1 and Bim” value [3] was “up to 2 ×”.
